Measured values: patent US10286033B2, “Methods and compositions comprising desmopressin in combination with an alpha-adrenergic receptor antagonist” (Serenity Pharmaceuticals, LLC, priority 2014, dated 2019)
Marks after values point to notes of the source that are not given here.

Columns and labels:
[1] = human, in vivo; cited from earlier work
[2] = Clinical study of desmopressin nasal spray on the occurrence of nocturnal voiding (Responder / Non-Responder); type: in vivo, human
Protocol: A clinical study was performed to evaluate the impact of administering desmopressin in combination with an alpha-adrenergic receptor antagonist alone or together with a 5-alpha reductase inhibitor to reduce the occurrence of nocturnal voiding by a patient. Experimental procedures and results are described below. […] Patients received as a nasal spray either (i) a 1.5 μg dosage of desmopressin or (ii) placebo. The desmopressin nasal spray (or placebo) was administered daily just prior to bedtime for a duration of twelve weeks. In addition, patients previously diagnosed as suffering from benign prostatic hyperplasia (BPH) and receiving an alpha-adrenergic receptor antagonist alone or together a 5-alpha reductase inhibitor for treatment of BPH continued to receive the alpha-adrenergic receptor antagonist alone or together the 5-alpha reductase inhibitor at the same dosage and frequency used prior to enrollment in this study. All patients in this study who received an alpha-adrenergic receptor antagonist alone or together a 5-alpha reductase inhibitor for treatment of their BPH had been receiving the alpha-adrenergic receptor antagonist alone or together the 5-alpha reductase inhibitor for at least 2 months before enrollment in this study and experienced on average at least two nocturnal voids per night before enrollment in this study. The desmopressin nasal spray was prepared by combining aliquots of an Emulsion Stock Solution and a Buffer Solution as described below. To produce an emulsion stock solution, the following ingredients in parts by weight are added to a vessel equipped with a stirring bar, and mixed for 15 minutes at 60-65° C.: (i) 180 parts sorbitan monolaurate (Span-20) aqueous solution (12 mg/mL); (ii) 30 parts Polysorbate 20 (Tween-20) aqueous solution (2 mg/mL); (iii) 400 parts cottonseed oil aqueous emulsion (26.6 mg/mL); (iv) 600 parts cyclopentadecanolide (CPE-215) aqueous emulsion (40 mg/mL); and (v) water to produce 1,500 grams total batch size. After mixing, the preparation is homogenized using a high speed mixture at 6500 RPM+ for 20-25 minutes to produce a fine emulsion. This solution is autoclaved to assure sterility. To produce a citric acid buffer stock solution, the following ingredients in parts by weight are added to a vessel equipped with a stirring bar, and mixed for 5 minutes at 60-65° C.: (i) 6200 parts water; (ii) 16 parts anhydrous citric acid aqueous solution (1.85 mg/mL); (iii) 76 parts sodium citrate, dihydrate aqueous solution (8.9 mg/mL); (iv) 104 parts Polysorbate 20 (Tween-20) aqueous solution (12 mg/mL); and (v) water to produce 8,500 grams total batch size. To produce a desmopressin stock solution, 0.111 part desmopressin acetate trihydrate is added to sufficient buffer stock solution to produce 100.0 mL of solution, and stirred until all the desmopressin is dissolved to produce a stock solution having a concentration of 100 μg desmopressin/mL. From this stock solution a 30 μg/mL solution was prepared by dilution. To produce the desmopressin nasal spray, aliquots of the 30 μg/mL solution were filtered to eliminate any bacterial contamination and diluted with an equal volume of emulsion stock solution to produce aseptic, preservative free dose forms comprising 15 μg/mL desmopressin, pH 5.5, containing 2% cyclopentadecanolide. These were bottled in sterile pump spray bottles fitted with a Pfeiffer APF pump sprayers that deliver 100 μL per metered spray (i.e., 1.5 μg desmopressin (i.e., 1500 ng desmopressin) per spray). The liquid contains no detectable microorganisms. Patients recorded the occurrence of nocturnal voids during the study period. Patients were designated to be a “Responder” if after receiving treatment there was a reduction in the average number of nocturnal voids during the treatment period.

[3] = BPH patients also receiving alpha-adrenergic receptor antagonist and 5-alpha reductase inhibitor, 1.5 μg nasal spray, 12 weeks, n = 21
[4] = BPH patients on alpha-adrenergic receptor antagonist alone or together with 5-alpha reductase inhibitor, n = 21
[5] = BPH patients, no alpha-adrenergic receptor antagonist or 5-alpha reductase inhibitor, n = 42
[6] = male patients without BPH, desmopressin only, n = 34

NC(=O)CC[C@@H]1NC(=O)[C@H](Cc2ccccc2)NC(=O)[C@H](Cc2ccc(O)cc2)NC(=O)CCSSC[C@@H](C(=O)N2CCC[C@H]2C(=O)N[C@H](CCCN=C(N)N)C(=O)NCC(N)=O)NC(=O)[C@H](CC(N)=O)NC1=O [Desmopressin, 1-desamino-8-D-arginine vasopressin]
half-life (known clearance rate) [1]: 1.5 to 2.0 h
Non-Responder Patients: Number of Patients that Received Desmopressin ([2]; BPH patients also receiving alpha-adrenergic receptor antagonist (one patient also on an anticholinergic agent), 1.5 μg nasal spray, 12 weeks, n = 21): 7**
Non-Responder Patients: Number of Patients that Received Desmopressin [2, 3]: 2
Responder Patients: Number of Patients that Received Desmopressin [2, 3]: 5
Responder Patients: Number of Patients that Received Desmopressin ([2]; BPH patients also receiving alpha-adrenergic receptor antagonist, 1.5 μg nasal spray daily before bedtime, 12 weeks, n = 21 desmopressin group): 7
Difference in Responder Response Rate Between Desmopressin-treated Patients & Those Receiving Placebo ([2]; BPH patients on alpha-adrenergic receptor antagonist alone or together with 5-alpha reductase inhibitor): 31%
Difference in Responder Response Rate Between Desmopressin-treated Patients & Those Receiving Placebo ([2]; BPH patients on alpha-adrenergic receptor antagonist alone or together with 5-alpha reductase inhibitor, listed as desmopressin): 31%
Non-Responder Patients: Total Number of Patients that Received Desmopressin [2, 4]: 9
Percent Total Non-Responder Patients receiving desmopressin [2, 4]: 43%
Percent Total Responder Patients (absolute response rate) receiving desmopressin [2, 4]: 57%
Responder Patients: Total Number of Patients that Received Desmopressin [2, 4]: 12
Percent Total Responder Patients (absolute response rate) receiving desmopressin ([2]; BPH patients on alpha-adrenergic receptor antagonist alone or together with 5-alpha reductase inhibitor, n = 21, listed as desmopressin): 57%
Difference in Responder Response Rate Between Desmopressin-treated Patients & Those Receiving Placebo ([2]; BPH patients, no alpha-adrenergic receptor antagonist or 5-alpha reductase inhibitor): 14%
Difference in Responder Response Rate Between Desmopressin-treated Patients & Those Receiving Placebo ([2]; BPH patients, no alpha-adrenergic receptor antagonist or 5-alpha reductase inhibitor, listed as desmopressin): 14%
Non-Responder Patients: Number of Patients that Received Desmopressin [2, 5]: 24
Percent Total Non-Responder Patients receiving desmopressin [2, 5]: 57%
Percent Total Responder Patients (absolute response rate) receiving desmopressin [2, 5]: 43%
Responder Patients: Number of Patients that Received Desmopressin [2, 5]: 18
Percent Total Responder Patients (absolute response rate) receiving desmopressin ([2]; BPH patients, no alpha-adrenergic receptor antagonist or 5-alpha reductase inhibitor, n = 42, listed as desmopressin): 43%
Reduction in occurrence of nocturnal voiding, combination compared with single treatments (in words) ([2]; desmopressin with alpha-adrenergic receptor antagonist alone or together with 5-alpha reductase inhibitor, versus desmopressin alone or the antagonist(s) without desmopressin): greater percentage of patients experiencing a reduction in the occurrence of nocturnal voiding
Difference in Responder Response Rate Between Desmopressin-treated Patients & Those Receiving Placebo ([2]; male patients without BPH, desmopressin only): 18%
Difference in Responder Response Rate Between Desmopressin-treated Patients & Those Receiving Placebo ([2]; male patients without BPH, desmopressin only, listed as desmopressin): 18%
Non-Responder Patients: Number of Patients that Received Desmopressin [2, 6]: 16
Percent Total Non-Responder Patients receiving desmopressin [2, 6]: 47%
Percent Total Responder Patients (absolute response rate) receiving desmopressin [2, 6]: 53%
Responder Patients: Number of Patients that Received Desmopressin [2, 6]: 18
Percent Total Responder Patients (absolute response rate) receiving desmopressin ([2]; male patients without BPH, desmopressin only, n = 34, listed as desmopressin): 53%
